Earlier results, collected in publication PMC5296674, “Evaluation of the Availability and Antioxidant Capacity of Maillard Compounds Present in Bread Crust: Studies in Caco-2 Cells” (Foods, 2017).

Tested on: Caco-2 cells
Set-up: method as in PMID 19338346

SMILES | HMF transport rate (100 µM HMF solution, 4 h of incubation) | Saturation of transport (100 and 500 μM)
O=Cc1ccc(CO)o1 [HMF, hydroxymethylfurfural] | around 20% | 
CC1=C(O)C(=O)C(C)O1 (centres unmarked) [HDMF, 4-hydroxy-2,5-dimethyl-3(2H)-furanone] |  | saturation of the transport was not observed
